Reference: patent US8383581B2, “Short-chain peptides as parathyroid hormone (PTH) receptor agonist” (Cadila Healthcare Limited, priority 2009, dated 2013)
Where a SMILES comes first, the peptide text is derived from it. [ ]: non-standard residue; d: D form. ξ: configuration not given here. ξBip(2'-Et-4'-OMe) = CCc1cc(OC)ccc1-c1ccc(CC(N)C(=O)O)cc1; Arg(NO2) = N=C(NCCC[C@H](N)C(=O)O)N[N+](=O)[O-]; ξαMePhe(2,6-F2) = CC(N)(Cc1c(F)cccc1F)C(=O)O; ξαMe(hhPhe) = CC(N)(CCCc1ccccc1)C(=O)O; ξαMePhe(2-F) = CC(N)(Cc1ccccc1F)C(=O)O; hhPhe = N[C@@H](CCCc1ccccc1)C(=O)O; hArg = N=C(N)NCCCC[C@H](N)C(=O)O; hCit = NC(=O)NCCCC[C@H](N)C(=O)O; Cit = NC(=O)NCCC[C@H](N)C(=O)O; ξαMeF = CC(N)(Cc1ccccc1)C(=O)O; ξαMeV = CC(C)C(C)(N)C(=O)O; Nle = CCCC[C@H](N)C(=O)O; ξαMeP = CC1(C(=O)O)CCCN1; Ac5c = NC1(C(=O)O)CCCC1; Ac3c = NC1(C(=O)O)CC1; Aib = CC(C)(N)C(=O)O

Tests used:
Format in all cases: in vitro ADME
[1] = Stability of peptides in human plasma; settings: human, plasma; for metabolised at 24 h, 2 μM: pH 7.8
Outline: (§1)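 Peptides at 2 μM final incubated 0–24 h at 37 °C (50 mM triethanolamine-HCl, pH 7.8) in each matrix, matrix level set to degrade ~50% PTH(1-34) in 1 h; TFA-quenched, C18 HPLC at 206 nm with ESI-MS peak identification; percent degradation from peak areas at each time point.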

[2] = Stability of peptides in human liver microsomes; settings: human, microsomes; for % degradation of peptides in 24 h when incubated with liver microsomes: 2 μM, pH 7.8
Outline: as §1

[3] = Stability of peptides in simulated intestinal fluid (pH 7.5); settings: pH 7.5; for half-life (t1/2) in simulated intestinal fluid / half-life: simulated gi fluid; for % degradation of peptides in 24 h when incubated with simulated intestinal fluid: 2 μM
Outline: as §1

[4] = Stability of peptides in simulated gastric fluid (pH 1.5; HCl, NaCl and Pepsin); settings: pH 1.5; for % degradation of peptides in 24 h when incubated with simulated gastric fluid: 2 μM; for half-life (t1/2) in simulated gastric fluid / half-life: simulated gi fluid

Row | half-life [1] [h] | metabolised at 24 h, 2 μM [1] [%] | half-life [2] [h] | % degradation of peptides in 24 h when incubated with liver microsomes [2] [%] | half-life (t1/2) in simulated intestinal fluid [3] | % degradation of peptides in 24 h when incubated with simulated intestinal fluid [3] [%] | % degradation of peptides in 24 h when incubated with simulated gastric fluid [4] [%] | half-life (t1/2) in simulated gastric fluid [4] | half-life (t1/2) in human plasma [1] | half-life [3] [h] | half-life [4] [h] | half-life (t1/2) in liver microsomes [2] | Structure (SMILES)
1 | 8 | 70 | 1 | 77 | (6) h | 41 | 15 | (8) h |  |  |  |  | CCCC[C@H](NC(=O)C(C)(Cc1ccccc1F)NC(=O)[C@H](CCC(N)=O)NC(=O)[C@@H](NC(=O)[C@H](CCC(=O)O)NC(=O)C1(NC(=O)[C@@H](NC(=O)C2(N)CCCC2)C(C)C)CCCC1)[C@@H](C)CC)C(=O)N[C@@H](Cc1c[nH]cn1)C(=O)N[C@@H](CCC(N)=O)C(=O)N[C@@H](CCCCNC(=N)N)C(=O)N1CCCC1(C)C(=O)N[C@@H](CCCCN)C(=O)NC(C)(Cc1ccccc1)C(N)=O (some centres unmarked) [Seq. ID. 34] (H-[Ac5c]V[Ac5c]EIQ[ξαMePhe(2-F)][Nle]HQ[hArg][ξαMeP]K[ξαMeF]-NH2)
2 | 8 | 75 | 1 | 83 | (6) h | 46 | 12 | (8) h |  |  |  |  | CCCC[C@H](NC(=O)C(C)(Cc1ccccc1F)NC(=O)[C@H](CCC(N)=O)NC(=O)[C@@H](NC(=O)[C@H](CCC(=O)O)NC(=O)C(C)(C)NC(=O)[C@@H](NC(=O)C1(N)CCCC1)C(C)C)[C@@H](C)CC)C(=O)N[C@@H](Cc1c[nH]cn1)C(=O)N[C@@H](CCC(N)=O)C(=O)NC(C)(C)C(=O)NC(C)(C)C(=O)NC(C)(Cc1c(F)cccc1F)C(=O)NC(C)(Cc1c(F)cccc1F)C(N)=O (some centres unmarked) [Seq. ID. 580] (H-[Ac5c]V[Aib]EIQ[ξαMePhe(2-F)][Nle]HQ[Aib][Aib][ξαMePhe(2,6-F2)][ξαMePhe(2,6-F2)]-NH2)
3 |  | 80 | 0.5 | 100 |  | 100 | 100 |  | (9) h | 0.5 | 0.5 |  | CCCC[C@H](NC(=O)C(C)(Cc1ccccc1F)NC(=O)[C@H](CCC(N)=O)NC(=O)[C@@H](NC(=O)[C@H](CCC(=O)O)NC(=O)C(C)(C)NC(=O)[C@@H](NC(=O)C1(N)CC1)C(C)C)[C@@H](C)CC)C(=O)N[C@@H](Cc1c[nH]cn1)C(=O)N[C@@H](CCC(N)=O)C(=O)N[C@@H](CCCCNC(=N)N)C(=O)NC(C)(C)C(=O)N[C@@H](CCCCN)C(=O)NC(C)(Cc1c(F)cccc1F)C(N)=O (some centres unmarked) [Seq. ID. 95] (H-[Ac3c]V[Aib]EIQ[ξαMePhe(2-F)][Nle]HQ[hArg][Aib]K[ξαMePhe(2,6-F2)]-NH2)
4 | 8 | 70 | 1 | 78 | (6) h | 42 | 12 | (8) h |  |  |  |  | CCCC[C@H](NC(=O)[C@H](CC(C)C)NC(=O)[C@H](CCC(N)=O)NC(=O)[C@@H](NC(=O)[C@H](CCC(=O)O)NC(=O)C1(NC(=O)[C@@H](NC(=O)C2(N)CC2)C(C)C)CC1)[C@@H](C)CC)C(=O)N[C@@H](Cc1c[nH]cn1)C(=O)N[C@@H](CCC(N)=O)C(=O)N[C@@H](CCCCNC(=N)N)C(=O)N[C@@H](C)C(=O)N[C@@H](CCCNC(=N)N[N+](=O)[O-])C(=O)NC(Cc1ccc(-c2ccc(OC)cc2CC)cc1)C(=O)N[C@@H](CCCc1ccccc1)C(N)=O (some centres unmarked) [Seq. ID. 690] (H-[Ac3c]V[Ac3c]EIQL[Nle]HQ[hArg]A[Arg(NO2)][ξBip(2'-Et-4'-OMe)][hhPhe]-NH2)
5 | > 24 | 0 | 2 | 85 |  | 00 | 45 |  |  | > 24 | 4 |  | CCCC[C@H](NC(=O)C(C)(Cc1c(F)cccc1F)NC(=O)[C@H](CCC(N)=O)NC(=O)[C@@H](NC(=O)[C@H](CCC(=O)O)NC(=O)C(C)(C)NC(=O)[C@@H](NC(=O)C(C)(C)N)C(C)C)[C@@H](C)CC)C(=O)N[C@@H](Cc1c[nH]cn1)C(=O)N[C@@H](CCC(N)=O)C(=O)N[C@@H](CCCCNC(N)=O)C(=O)NC(C)(C)C(=O)NC(C)(C)C(=O)NC(C)(Cc1ccccc1F)C(N)=O (some centres unmarked) [Seq. ID. 430] (H-[Aib]V[Aib]EIQ[ξαMePhe(2,6-F2)][Nle]HQ[hCit][Aib][Aib][ξαMePhe(2-F)]-NH2)
6 | > 24 | 0 |  | 33 |  | 00 | 00 |  |  | > 24 | > 24 | (5) h | CCCC[C@H](NC(=O)[C@H](CC(C)C)NC(=O)[C@H](CCC(N)=O)NC(=O)[C@@H](NC(=O)[C@H](CCC(=O)O)NC(=O)C(C)(C)NC(=O)[C@@H](NC(=O)C1(NC(=O)C(C)(N)C(C)C)CCCC1)C(C)C)[C@@H](C)CC)C(=O)N[C@@H](Cc1c[nH]cn1)C(=O)N[C@@H](CCC(N)=O)C(=O)N[C@@H](CCCCNC(=N)N)C(=O)N[C@@H](C)C(=O)N[C@@H](CCCCN)C(=O)NC(Cc1ccc(-c2ccc(OC)cc2CC)cc1)C(=O)NC(C)(CCCc1ccccc1)C(N)=O (some centres unmarked) [Seq. ID. 895] (H-[ξαMeV][Ac5c]V[Aib]EIQL[Nle]HQ[hArg]AK[ξBip(2'-Et-4'-OMe)][ξαMe(hhPhe)]-NH2)
7 | > 24 | 0 |  | 32 |  | 00 | 00 |  |  | > 24 | > 24 | (5) h | CCCC[C@H](NC(=O)C(C)(Cc1c(F)cccc1F)NC(=O)[C@H](CCC(N)=O)NC(=O)[C@@H](NC(=O)[C@H](CCC(=O)O)NC(=O)C(C)(C)NC(=O)[C@@H](NC(=O)C1(N)CCCC1)C(C)C)[C@@H](C)CC)C(=O)N[C@@H](Cc1c[nH]cn1)C(=O)N[C@@H](CCC(N)=O)C(=O)NC(C)(Cc1c(F)cccc1F)C(=O)NC(C)(C)C(=O)N[C@@H](CCCNC(N)=O)C(=O)NC(C)(Cc1ccccc1F)C(N)=O (some centres unmarked) [Seq. ID. 480] (H-[Ac5c]V[Aib]EIQ[ξαMePhe(2,6-F2)][Nle]HQ[ξαMePhe(2,6-F2)][Aib][Cit][ξαMePhe(2-F)]-NH2)
8 | 8 | 78 | 1 | 79 | (6) h | 55 | 12 | (8) h |  |  |  |  | CCCC[C@H](NC(=O)C(C)(Cc1c(F)cccc1F)NC(=O)[C@H](CCC(N)=O)NC(=O)[C@@H](NC(=O)[C@H](CCC(=O)O)NC(=O)C(C)(C)NC(=O)[C@@H](NC(=O)C(C)(C)N)C(C)C)[C@@H](C)CC)C(=O)N[C@@H](Cc1c[nH]cn1)C(=O)N[C@@H](CCC(N)=O)C(=O)NC(C)(Cc1c(F)cccc1F)C(=O)N[C@@H](C)C(=O)N[C@@H](CCCNC(=N)N[N+](=O)[O-])C(=O)NC(C)(Cc1ccccc1F)C(N)=O (some centres unmarked) [Seq. ID. 525] (H-[Aib]V[Aib]EIQ[ξαMePhe(2,6-F2)][Nle]HQ[ξαMePhe(2,6-F2)]A[Arg(NO2)][ξαMePhe(2-F)]-NH2)
9 | > 24 | 0 |  | 35 |  | 00 | 00 |  |  | > 24 | > 24 | (5) h | CCCC[C@H](NC(=O)C(C)(Cc1c(F)cccc1F)NC(=O)[C@H](CCC(N)=O)NC(=O)[C@@H](NC(=O)[C@H](CCC(=O)O)NC(=O)C1(NC(=O)[C@@H](NC(=O)C2(N)CCCC2)C(C)C)CC1)[C@@H](C)CC)C(=O)N[C@@H](Cc1c[nH]cn1)C(=O)N[C@@H](CCC(N)=O)C(=O)N[C@@H](CCCCNC(=N)N)C(=O)N[C@@H](C)C(=O)N[C@@H](CCCNC(=N)N[N+](=O)[O-])C(=O)NC(C)(Cc1c(F)cccc1F)C(=O)N[C@@H](CCCc1ccccc1)C(N)=O (some centres unmarked) [Seq. ID. 710] (H-[Ac5c]V[Ac3c]EIQ[ξαMePhe(2,6-F2)][Nle]HQ[hArg]A[Arg(NO2)][ξαMePhe(2,6-F2)][hhPhe]-NH2)
10 | > 24 | 0 |  | 32 |  | 00 | 00 |  |  | > 24 | > 24 | (5) h | CCCC[C@H](NC(=O)C(C)(Cc1ccccc1F)NC(=O)[C@H](CCC(N)=O)NC(=O)[C@@H](NC(=O)[C@H](CCC(=O)O)NC(=O)C(C)(C)NC(=O)[C@@H](NC(=O)C(C)(C)N)C(C)C)[C@@H](C)CC)C(=O)N[C@@H](Cc1c[nH]cn1)C(=O)N[C@@H](CCC(N)=O)C(=O)N[C@@H](CCCCNC(=N)N)C(=O)N1CCCC1(C)C(=O)N[C@@H](CCCCN)C(=O)NC(C)(Cc1ccccc1F)C(N)=O (some centres unmarked) [Seq. ID. 56] (H-[Aib]V[Aib]EIQ[ξαMePhe(2-F)][Nle]HQ[hArg][ξαMeP]K[ξαMePhe(2-F)]-NH2)
